The inhibition is the drop in the measured response relative to a control, in per cent. As a reminder, the Ki is a measure of affinity in units of concentration, obtained from inhibition or displacement.

For one assay, the target named is T1, vanilloid receptor 1 (VR1/TRPV1 receptor) (Homo sapiens, UniProt Q8NER1).
T1 construct: expressed in transfected cells; host or cells: CHO K1 cells (ECACC), stably transfected
T1 sequence (Q8NER1 whole entry): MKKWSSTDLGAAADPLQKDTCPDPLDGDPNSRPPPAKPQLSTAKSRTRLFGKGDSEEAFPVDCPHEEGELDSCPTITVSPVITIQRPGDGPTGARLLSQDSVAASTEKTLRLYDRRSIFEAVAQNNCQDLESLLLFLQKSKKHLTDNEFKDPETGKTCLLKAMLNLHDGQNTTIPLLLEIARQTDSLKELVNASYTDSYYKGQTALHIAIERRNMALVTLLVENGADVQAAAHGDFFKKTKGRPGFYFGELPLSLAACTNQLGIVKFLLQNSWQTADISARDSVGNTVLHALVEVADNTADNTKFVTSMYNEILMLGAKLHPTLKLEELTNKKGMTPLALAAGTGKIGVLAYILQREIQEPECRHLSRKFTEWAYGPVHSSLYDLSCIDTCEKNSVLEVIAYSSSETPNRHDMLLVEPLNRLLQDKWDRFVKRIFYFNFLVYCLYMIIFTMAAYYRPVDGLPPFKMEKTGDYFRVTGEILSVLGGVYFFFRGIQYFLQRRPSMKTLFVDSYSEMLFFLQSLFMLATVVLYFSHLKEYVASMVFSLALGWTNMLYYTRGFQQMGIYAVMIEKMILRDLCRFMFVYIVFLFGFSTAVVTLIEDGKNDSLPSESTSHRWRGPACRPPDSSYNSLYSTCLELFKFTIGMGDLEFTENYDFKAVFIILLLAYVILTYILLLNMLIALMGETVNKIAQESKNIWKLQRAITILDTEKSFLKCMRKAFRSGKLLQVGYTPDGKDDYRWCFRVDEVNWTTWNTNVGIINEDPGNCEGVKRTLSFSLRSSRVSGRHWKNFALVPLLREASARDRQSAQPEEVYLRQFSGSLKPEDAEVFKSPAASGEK
In words: VR1/TRPV1 receptor affinity, capsaicin stimulus (human). The class given is cell-based, human being. More on the design: key to (f) Ki (human being) [nM] Cap: result in words: AG=agonist; pAG=partial agonist; NE=no effect. The note with it: @ 5 μM, Tables 8-12.
Consider “1-[[5-tert-Butyl-2-(3-fluorophenyl)-2H-pyrazol-3-yl]-methyl]-3-[3-fluoro-4-(3-hydroxy-azetidin-1-yl)-phenyl]-urea [Example C8]”, for which the “(f) Ki (human being) [nM] Cap: inhibition (as a percentage)” value is 53% @ 5 μM.

For the compound “1-[[2-(3,4-Difluoro-phenyl)-5-(trifluoromethyl)-2H-pyrazol-3-yl]-methyl]-3-[3-fluoro-4-(2-hydroxy-ethoxy-methyl)-phenyl]-urea [Example A132]”, the “(f) Ki (human being) [nM] Cap: inhibition (as a percentage)” value was determined as 48% @ 5 μM.

The assay is the same for the next values; noted with them: @ 5 μM, Tables 8-12, read-out: (f) Ki (human being) [nM] Cap: inhibition (as a percentage).
On to `NCc1ccc(NC(=O)NCc2cc(C(F)(F)F)nn2-c2cccc(Cl)c2)cc1F` [Example B39, 1-[4-(Aminomethyl)-3-fluoro-phenyl]-3-[[2-(3-chlorophenyl)-5-(trifluoromethyl)-2H-pyrazol-3-yl]-methyl]-urea], for which the inhibition at 5 µM was determined as 37%.

The same assay, now with this note: Tables 8-12.
For the compound `CC(C(=O)NCc1cc(C(C)(C)C)nn1-c1cccc(Cl)c1)c1ccc(S(C)(=O)=O)c(F)c1` (stereo not drawn) [Example D1, N-[[5-tert-Butyl-2-(3-chlorophenyl)-2H-pyrazol-3-yl]-methyl]-2-(3-fluoro-4-methylsulfonyl-phenyl)-propionamide], the “(f) Ki (human being) [nM] Cap: result in words” value (from here on “(f) Ki (human being) … in words”) was “AG”.

For `COc1cc(NC(=O)NCc2cc(C(F)(F)F)nn2-c2cccc(Cl)c2)ccc1O` [Example A15, 1-[[2-(3-Chlorophenyl)-5-(trifluoromethyl)-2H-pyrazol-3-yl]-methyl]-3-(4-hydroxy-3-methoxy-phenyl)-urea], the “(f) Ki (human being) … in words” value is given as “AG”.

Take `COc1ccc(NC(=O)NCc2cc(C(C)(C)C)nn2-c2cccc(Cl)c2)cc1OC` [Example A13, 1-[[5-tert-Butyl-2-(3-chlorophenyl)-2H-pyrazol-3-yl]-methyl]-3-(3,4-dimethoxyphenyl)-urea]: the “(f) Ki (human being) … in words” value is “AG”.

Take `CC(C(=O)NCc1cc(C(C)(C)C)nn1-c1cccc(Cl)c1)c1ccc(CO)c(F)c1` (stereo not drawn) [Example A32, N-[[5-tert-Butyl-2-(3-chlorophenyl)-2H-pyrazol-3-yl]-methyl]-2-[3-fluoro-4-(hydroxymethyl)-phenyl]-propionamide]: the “(f) Ki (human being) … in words” value was “AG”.

Still in this assay, the particulars now being: Tables 8-12, read-out: (f) Ki (human being) [nM] Cap.
Regarding `NS(=O)(=O)NCc1ccc(NC(=O)NCc2cc(C3CC3)nn2-c2cccc(Cl)c2)cc1` [Example B75, 1-[[2-(3-Chlorophenyl)-5-cyclopropyl-2H-pyrazol-3-yl]-methyl]-3-[4-[(sulfamoylamino)-methyl]-phenyl]-urea], the inhibition constant Ki came to 19 nM.

For “4-[1-[[5-tert-Butyl-2-(3-chlorophenyl)-2H-pyrazol-3-yl]-methyl-carbamoyl]-ethyl]-2-fluoro-N-[4-(trifluoromethyl)-phenyl]-benzamide [Example E49]”, the Ki is 3 nM.

`CC(C)(C)c1cc(CNC(=O)Nc2ccc(CCS(C)(=O)=O)c(F)c2)n(-c2cccc(Cl)c2)n1` [Example D29, 1-[[5-tert-Butyl-2-(3-chlorophenyl)-2H-pyrazol-3-yl]-methyl]-3-[3-fluoro-4-(2-methylsulfonyl-ethyl)-phenyl]-urea]: the Ki amounted to 13 nM.

Take `CC(C)(C)c1cc(CNC(=O)Nc2ccc(CNS(N)(=O)=O)c(F)c2)n(-c2ccc(F)c(F)c2)n1` [Example B69, 1-[[5-tert-Butyl-2-(3,4-difluoro-phenyl)-2H-pyrazol-3-yl]-methyl]-3-[3-fluoro-4-[(sulfamoylamino)-methyl]-phenyl]-urea]: the inhibition constant (Ki) came to 30 nM.

With `NS(=O)(=O)NCc1ccc(NC(=O)NCc2cc(C(F)(F)F)nn2-c2ccc(F)c(Cl)c2)cc1` [Example B78, 1-[[2-(3-Chloro-4-fluoro-phenyl)-5-(trifluoromethyl)-2H-pyrazol-3-yl]-methyl]-3-[4-[(sulfamoylamino)-methyl]-phenyl]-urea], the Ki was found to be 21 nM.

As to `CC(C)(C)c1cc(CNC(=O)Nc2ccc(CCS(C)(=O)=O)c(F)c2)n(-c2cc(F)cc(F)c2)n1` [Example D31, 1-[[5-tert-Butyl-2-(3,5-difluoro-phenyl)-2H-pyrazol-3-yl]-methyl]-3-[3-fluoro-4-(2-methylsulfonyl-ethyl)-phenyl]-urea], the Ki worked out at 15 nM.

For `O=Cc1ccc(NC(=O)NCc2cc(C(F)(F)F)nn2-c2cccc(Cl)c2)cc1F` [Example E61, 1-((1-(3-chlorophenyl)-3-(trifluoromethyl)-1H-pyrazol-5-yl)methyl)-3-(3-fluoro-4-formylphenyl)urea], the inhibition constant Ki is 23 nM.

As for `CC(C(=O)NCc1cc(C(F)(F)F)nn1-c1cccc(Cl)c1)c1ccc(CNS(C)(=O)=O)c(Cl)c1` (stereo not drawn) [Example B22, 2-[3-Chloro-4-(methanesulfonamido-methyl)-phenyl]-N-[[2-(3-chlorophenyl)-5-(trifluoromethyl)-2H-pyrazol-3-yl]-methyl]-propionamide], the Ki worked out at 3 nM.

Consider `CC(C(=O)NCc1cc(C(F)(F)F)nn1-c1cccc(Cl)c1)c1cc(F)c(CO)c(F)c1` (stereo not drawn) [Example A52, N-[[2-(3-Chlorophenyl)-5-(trifluoromethyl)-2H-pyrazol-3-yl]-methyl]-2-[3,5-difluoro-4-(hydroxymethyl)-phenyl]-propionamide], for which the Ki was determined as 40 nM.

As for `CS(=O)(=O)NCc1ccc(NC(=O)NCc2cc(C(F)(F)F)nn2-c2cccc(F)c2)cc1` [Example B44, 1-[[2-(3-Fluorophenyl)-5-(trifluoromethyl)-2H-pyrazol-3-yl]-methyl]-3-[4-(methanesulfonamido-methyl)-phenyl]-urea], the inhibitory constant (Ki) is 44 nM.

For `COc1cc(C(C)C(=O)NCc2cc(C(C)(C)C)nn2-c2cccc(Cl)c2)ccc1CNS(C)(=O)=O` (stereo not drawn) [Example B98, N-[[5-tert-Butyl-2-(3-chlorophenyl)-2H-pyrazol-3-yl]-methyl]-2-[4-(methanesulfonamido-methyl)-3-methoxy-phenyl]-propionamide], the inhibition constant (Ki) was 3 nM.

For the compound `COc1cccc(-n2nc(C(F)(F)F)cc2CNC(=O)Nc2ccc(CNS(N)(=O)=O)c(F)c2)c1` [Example B71, 1-[3-Fluoro-4-[(sulfamoylamino)-methyl]-phenyl]-3-[[2-(3-methoxyphenyl)-5-(trifluoromethyl)-2H-pyrazol-3-yl]-methyl]-urea], the Ki worked out at 41 nM.

As to `CC(C)(C)c1cc(CNC(=O)Nc2ccc(CNS(C)(=O)=O)c(F)c2)n(-c2cccc(Cl)c2)n1` [Example B31, 1-[[5-tert-Butyl-2-(3-chlorophenyl)-2H-pyrazol-3-yl]-methyl]-3-[3-fluoro-4-(methanesulfonamido-methyl)-phenyl]-urea], the Ki is 9 nM.

In the case of `Cc1cccc(-n2nc(C(F)(F)F)cc2CNC(=O)Nc2ccc(CNS(C)(=O)=O)cc2)c1` [Example B89, 1-[4-(Methanesulfonamido-methyl)-phenyl]-3-[[2-(m-tolyl)-5-(trifluoromethyl)-2H-pyrazol-3-yl]-methyl]-urea], the Ki came out at 24 nM.

With `CS(=O)(=O)NCc1c(F)cc(NC(=O)NCc2cc(C(F)(F)F)nn2-c2cccc(Cl)c2)cc1F` [Example B27, 1-[[2-(3-Chlorophenyl)-5-(trifluoromethyl)-2H-pyrazol-3-yl]-methyl]-3-[3,5-difluoro-4-(methanesulfonamido-methyl)-phenyl]-urea], the Ki stood at 8 nM.

Turning to `CC(C)(C)c1cc(CNC(=O)Nc2ccc(CNS(C)(=O)=O)c(F)c2)n(-c2ccc(F)c(Cl)c2)n1` [Example B51, 1-[[5-tert-Butyl-2-(3-chloro-4-fluoro-phenyl)-2H-pyrazol-3-yl]-methyl]-3-[3-fluoro-4-(methanesulfonamido-methyl)-phenyl]-urea], the Ki was 15 nM.

In the case of `CC(C(=O)NCc1cc(C(F)(F)F)nn1-c1ccc(Cl)cc1)c1ccc(CNS(C)(=O)=O)c(F)c1` (stereo not drawn) [Example B18, N-[[2-(4-Chlorophenyl)-5-(trifluoromethyl)-2H-pyrazol-3-yl]-methyl]-2-[3-fluoro-4-(methanesulfonamido-methyl)-phenyl]-propionamide], the Ki was found to be 13 nM.

With `CC(C)c1cccc(-n2nc(C(F)(F)F)cc2CNC(=O)Nc2ccc(CCS(C)(=O)=O)c(F)c2)c1` [Example D33, 1-[3-Fluoro-4-(2-methylsulfonyl-ethyl)-phenyl]-3-[[2-(3-isopropyl-phenyl)-5-(trifluoromethyl)-2H-pyrazol-3-yl]-methyl]-urea], the Ki was found to be 4 nM.

In the case of `CC(C(=O)NCc1cc(C(F)(F)F)nn1-c1cccc(Cl)c1)c1ccc(C(=O)Nc2ccc(F)cc2)c(F)c1` (stereo not drawn) [Example E45, 4-[1-[[2-(3-Chlorophenyl)-5-(trifluoromethyl)-2H-pyrazol-3-yl]-methyl-carbamoyl]-ethyl]-2-fluoro-N-(4-fluorophenyl)-benzamide], the inhibition constant (Ki) was determined as 0.3 nM.

Regarding `CC(C(=O)NCc1cc(C(F)(F)F)nn1-c1ccc(F)c(F)c1)c1ccc(CNS(C)(=O)=O)c(F)c1` (stereo not drawn) [Example B19, N-[[2-(3,4-Difluoro-phenyl)-5-(trifluoromethyl)-2H-pyrazol-3-yl]-methyl]-2-[3-fluoro-4-(methanesulfonamido-methyl)-phenyl]-propionamide], the Ki came to 6 nM.

As to `NS(=O)(=O)NCc1ccc(NC(=O)NCc2cc(C3CC3)nn2-c2cccc(Cl)c2)cc1F` [Example B61, 1-[[2-(3-Chlorophenyl)-5-cyclopropyl-2H-pyrazol-3-yl]-methyl]-3-[3-fluoro-4-[(sulfamoylamino)-methyl]-phenyl]-urea], the Ki was found to be 8 nM.

With `COc1cc(NC(=O)NCc2cc(C(F)(F)F)nn2-c2cccc(Cl)c2)ccc1CNS(C)(=O)=O` [Example B12, 1-[[2-(3-Chlorophenyl)-5-(trifluoromethyl)-2H-pyrazol-3-yl]-methyl]-3-[4-(methanesulfonamido-methyl)-3-methoxy-phenyl]-urea], the Ki amounted to 41 nM.

As for `CC(C(=O)NCc1cc(C(F)(F)F)nn1-c1ccc(F)c(Cl)c1)c1ccc(S(C)(=O)=O)c(F)c1` (stereo not drawn) [Example D4, N-[[2-(3-Chloro-4-fluoro-phenyl)-5-(trifluoromethyl)-2H-pyrazol-3-yl]-methyl]-2-(3-fluoro-4-methylsulfonyl-phenyl)-propionamide], the inhibition constant Ki is 41 nM.

Values taken from US9624209B2, “Substituted phenylureas and phenylamides as vanilloid receptor ligands” (Gruenenthal GmbH, priority 2009, dated 2017).
